For nine compounds, IC50 results are on record in patent US12234245B2, “Sulfonimidamide compounds as inhibitors of interleukin-1 activity” (Genentech, Inc., priority 2018, dated 2025).

SMILES strings stand for the structures. Like-named read-outs stand apart in the source and are kept apart here.

What all share (type): cell-based
For one test, the system named is PBMCs. The test can be described thus: CTG (CellTiter-Glo) viability assay in PBMCs. The conditions noted are these: LPS and nigericin stimulated. An outline of the steps:
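Human donor PBMCs were primed with 100 ng/mL LPS for 3 h, pre-treated with compound (0.00017–10 µM) for 30 min in FBS-free medium, then stimulated with 10 µM nigericin for 1.5 h. Viability was read as cellular ATP by CellTiter-Glo, a cytotoxicity counter-screen to IL-1β release.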
Background: Cellular ATP, detected with luciferase, serves as a proxy for viable cell number.

Test [1] deals with TNFα. Briefly: TNFα counter-screen in LPS and nigericin stimulated Kupffer cells. Particulars: human Kupffer cells. The protocol: (§1) Human Kupffer cells (KCs), specialized liver macrophages residing in […], were obtained by gradient isolation from liver specimens harvested post-mortem by Samsara Sciences. Cells were obtained through an IRB approved donor program by Samsara Sciences and all donors tested negative for bacterial and viral infections.
(§2) Fresh or cryopreserved PMBCs were seeded in V-bottom 96-well plate at 0.5-1×10^5 cells per well and incubated overnight at 37° C. with 5% CO2 in RPMI 1640 medium with GlutaMAX supplement, 4.5 g/L D-glucose, 10% Fetal Bovine Serum (FBS), […] Sodium Pyruvate, 1% Penicillin/Streptomycin, 10 mM HEPES and 0.05 mM of β-mercaptoethanol. Freshly isolated or cryopreserved KCs cells were seeded in flat-bottom 96-well plates at 0.6-1.5×10^5 cells/well and incubated overnight at 37° C. 5% CO2 in RPMI 1640 Medium with GlutaMAX supplement, FBS, 1% Penicillin/Streptomycin and 10 mM HEPES. The following day, the cells were primed with 100 ng/mL of lipopolysaccharides (LPS; Sigma Aldrich) in FBS-free RPMI 1640 for 3 h. After the priming step, the media was removed and PBMCs were pre-incubated with serial concentrations of test compounds (0.00017-10 uM) or vehicle (DMSO) for 30 min in FBS-free media prior to addition of the NLRP3 activator. Cells were then stimulated with 10 uM Nigericin (Sigma Aldrich; InvivoGen) for 1.5 h. Plates were centrifuged at 1,500 rpm for 3 minutes to pellet cells and supernatant was transferred into new plates for subsequent experiments.
(§3) For ELISA assays cells were seeded into 96-well plates. Post study, supernatants were removed and the levels of mature IL-1β, IL18 and TNFα (Quantikine ELISA, R&D systems) were measured in cell conditioned media by ELISA according to manufacturer's instructions.
(§4) TNFα levels of LPS and nigericin stimulated cells were measured by HTRF assay (Cisbio, Bedford, MA). […] Measuring TNFalpha production also serves as a technical counter-screen to eliminate compounds that interfere with the HTRF reagents. Thus compounds that inhibit both IL-1β and TNFα levels are triaged for either being non-selective for inflammasome or interfering with the HTRF readout.

Test [2] addresses T1, NLRP3 inflammasome (Homo sapiens, UniProt Q96P20). The test can be described thus: NLRP3 inflammasome activation assay in PBMCs, IL-1β release (ELISA / HTRF). Further details: were freshly isolated from human peripheral blood from healthy donors; StemCells Technologies; host or cells: primary human PBMCs, LPS-primed, nigericin-stimulated. Particulars: LPS primed. An outline of the steps: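 Human PBMCs primed with 100 ng/mL LPS for 3 h, pre-treated with compound for 30 min (0.00017–10 µM, or from 40 µM in 2-fold 20-point series), then stimulated with 10 µM nigericin for 1.5 h at 37 °C. Released IL-1β in supernatant quantified by ELISA or by HTRF (665/620 ratio, overnight RT).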

Test [3] has as its system TNFα. Briefly: TNFα counter-screen in LPS and nigericin stimulated PBMCs. The conditions noted are these: human PBMCs. How it is done: Human peripheral blood mononuclear cells (PBMCs), consisting of lymphocytes (T, B and NK cells), monocytes and dendritic cells, were freshly isolated from human peripheral blood from healthy donors. Cells were obtained through an IRB approved donor program by iXCells Biotechnologies where all the donors were tested for bacterial and viral infections. Cells were purified from peripheral blood using ficoll gradient centrifugation.
as §2, §3, §4
On the technique in general: The purpose of a counterscreen is to sort out artefacts and off-target activity.

The target in test [4] is T1, NLRP3 inflammasome. Briefly: NLRP3 inflammasome activation assay in Kupffer cells, IL-1β release. Further details: were freshly isolated from human peripheral blood from healthy donors; StemCells Technologies; host or cells: primary human PBMCs, LPS-primed, nigericin-stimulated. Particulars: LPS primed, nigericin.
From the text: Some of the following assays were used to determine the inhibitory activity of the compounds on the NLRP3 inflammasome using a common inflammasome activation stimuli—nigericin.
as §1, §2, §3

Another test deals with Kupffer cells. The test can be described thus: CTG (CellTiter-Glo) viability assay in Kupffer cells. The conditions noted are these: human Kupffer cells. The protocol:
as §1, §2
Viability of compound treated cells was measured using CellTiter-Glo® assay (Promega, Madison, Wis.) that measures the ATP content of cells which is proportional to the number of live cells within a well. This is a counter-screen to establish that the reduction of IL-1β levels in LPS and nigericin stimulated and compound treated cells is not due to cytotoxicity, but rather through the inhibition of the inflammasome pathway. Compounds inhibiting NRLP3 inflammasome activation ultimately increase the viability of LPS and nigericin stimulated cells by blocking NLRP3 mediated pyroptosis that would otherwise lead to cell lysis.

Test [5] has as its target T1, NLRP3 inflammasome. The test can be described thus: THP-1 ASC-GFP speck assay. Particulars: THP-1 ASC-GFP cells, PMA differentiated, LPS primed, 10 μM nigericin; read-out: THP1 ASC Speck IC50. The arrangement: host or cells: THP-1 ASC-GFP cells, PMA-differentiated, LPS-primed, nigericin-stimulated. An outline of the steps:
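PMA-differentiated (500 ng/ml, overnight) THP-1 ASC-GFP cells primed with 1 μg/mL LPS for 3 h, preincubated 30 min with compound (top 40 μM, 2-fold, 20 points), then stimulated with 10 μM nigericin for 90 min at 37 °C. After fixation and Hoechst staining, imaging gave the percentage of cells bearing a GFP ASC speck.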

Setting [6] is: human PBMCs, read-out: PBMC CTG IC50.
The mark [7] stands for this setting: 10 uM nigericin, read-out: PBMC IL-1 β IC50.
[8] abbreviates: 10 μM nigericin, read-out: PBMC IL-1β IC50.

T1 sequence (Q96P20 whole entry): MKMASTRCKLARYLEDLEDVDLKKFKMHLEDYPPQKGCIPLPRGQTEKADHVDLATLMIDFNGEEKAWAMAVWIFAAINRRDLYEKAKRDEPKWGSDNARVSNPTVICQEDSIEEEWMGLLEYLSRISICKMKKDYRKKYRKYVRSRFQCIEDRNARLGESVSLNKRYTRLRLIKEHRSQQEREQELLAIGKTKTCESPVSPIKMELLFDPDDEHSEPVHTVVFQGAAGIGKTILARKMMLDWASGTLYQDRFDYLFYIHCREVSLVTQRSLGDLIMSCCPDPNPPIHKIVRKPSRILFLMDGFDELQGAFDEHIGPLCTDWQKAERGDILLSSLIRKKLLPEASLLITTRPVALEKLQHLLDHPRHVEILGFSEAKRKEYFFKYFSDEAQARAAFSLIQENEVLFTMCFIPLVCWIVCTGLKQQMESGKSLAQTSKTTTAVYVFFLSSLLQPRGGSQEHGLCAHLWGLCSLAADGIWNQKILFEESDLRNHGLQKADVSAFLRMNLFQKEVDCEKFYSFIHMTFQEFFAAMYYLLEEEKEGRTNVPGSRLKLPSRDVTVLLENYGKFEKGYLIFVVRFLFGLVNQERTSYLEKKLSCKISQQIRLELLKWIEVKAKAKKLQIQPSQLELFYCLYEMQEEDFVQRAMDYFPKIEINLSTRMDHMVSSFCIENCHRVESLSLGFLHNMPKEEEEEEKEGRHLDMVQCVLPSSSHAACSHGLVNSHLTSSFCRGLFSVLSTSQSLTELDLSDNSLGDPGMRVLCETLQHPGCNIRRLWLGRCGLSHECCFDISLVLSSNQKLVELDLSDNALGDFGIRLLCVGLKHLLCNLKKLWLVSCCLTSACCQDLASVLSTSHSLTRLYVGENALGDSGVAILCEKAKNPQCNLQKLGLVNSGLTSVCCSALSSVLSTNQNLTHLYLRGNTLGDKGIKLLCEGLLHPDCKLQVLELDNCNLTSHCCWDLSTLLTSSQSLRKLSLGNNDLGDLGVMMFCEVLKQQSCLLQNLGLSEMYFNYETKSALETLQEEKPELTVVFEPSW

As for `CO[C@@H]1COc2c(S(=N)(=O)NC(=O)Nc3c4c(cc5c3CCC5)CCC4)cnn2C1` (stereo partly drawn) [drawing 668], the IC50 was below 100 nM in the test with PBMCs (setting [6]); above 10000 nM with TNFα [1] (read-out: Kupffer TNF α IC50); below 100 nM at NLRP3 inflammasome [2] (setting [7]); above 10000 nM with TNFα [3] (read-out: PBMC TNF α IC50); below 100 nM at NLRP3 inflammasome [4] (read-out: Kupffer IL-β B IC50); below 100 nM in the test with Kupffer cells.
With `COC1COc2c(S(N)(=O)=NC(=O)Nc3c4c(cc5c3CCC5)CCC4)cnn2C1` (single isomer, unassigned) [Example 20], the IC50 was 19 nM in the test on PBMCs (setting [6]); above 10000 nM with TNFα [1]; 4 nM at NLRP3 inflammasome [2] (setting [8]); above 10000 nM with TNFα [3] (read-out: PBMC TNFα IC50); below 100 nM at NLRP3 inflammasome [4] (read-out: Kupffer IL-1 β IC50); below 100 nM with Kupffer cells.
Take `NS(=O)(=NC(=O)Nc1c2c(cc3c1CCC3)CCC2)c1cnn2c1OCCC2` (racemic) [Example 1, N′-((1,2,3,5,6,7-hexahydro-s-indacen-4-yl)carbamoyl)-6,7-dihydro-5H-pyrazolo[5,1-b][1,3]oxazine-3-sulfonimidamide]: the IC50 stood at 300 nM in the test with PBMCs (Homo sapiens, PBMC); 82 nM on NLRP3 inflammasome [2] (setting [8]); 123 nM on NLRP3 inflammasome [4] (read-out: Kupffer IL-1 β IC50); 103 nM with Kupffer cells.
As to `NS(=O)(=NC(=O)Nc1c2c(cc3c1CCC3)CCC2)c1cnn2c1OCCC2` (stereo not drawn), the IC50 in the test on PBMCs (Homo sapiens, PBMC) is 100 to 1000 nM; on NLRP3 inflammasome [2] (setting [7]), below 100 nM; at NLRP3 inflammasome [4] (read-out: Kupffer IL-β B IC50), 100 to 1000 nM; in the test on Kupffer cells it was 100 to 1000 nM.
For `CNC1COc2c(S(N)(=O)=NC(=O)Nc3c4c(cc5c3CCC5)CCC4)cnn2C1` (single isomer, unassigned) [Example 26], the IC50 in the test with PBMCs (setting [6]) was 2 nM; with TNFα [1], above 10000 nM; on NLRP3 inflammasome [5], 9.7 nM; at NLRP3 inflammasome [2] (setting [8]), 7.6 nM; with TNFα [3] (PBMC), above 10000 nM; on NLRP3 inflammasome [4] (read-out: Kupffer IL-1 β IC50) it was 20 nM. Besides, in the test with Kupffer cells, the IC50 turned out to be 21 nM.
Turning to `CN[C@@H]1COc2c(S(=N)(=O)NC(=O)Nc3c4c(cc5c3CCC5)CCC4)cnn2C1` (stereo partly drawn) [drawing 674], the IC50 in the test on PBMCs (setting [6]) is below 100 nM; in the test with TNFα [1] (read-out: Kupffer TNF α IC50), above 10000 nM; at NLRP3 inflammasome [2] (setting [7]) it was below 100 nM; in the test on TNFα [3] (read-out: PBMC TNF α IC50) it was above 10000 nM; on NLRP3 inflammasome [4] (read-out: Kupffer IL-β B IC50), below 100 nM; in the test on Kupffer cells, below 100 nM.
Consider `NS(=O)(=NC(=O)Nc1c2c(c(F)c3c1CCC3)CCC2)c1cnn2c1OCC2` (racemic) [Example 29, N′-((8-fluoro-1,2,3,5,6,7-hexahydro-s-indacen-4-yl)carbamoyl)-2,3-dihydropyrazolo[5,1-b]oxazole-7-sulfonimidamide], for which the IC50 in the test with PBMCs (Homo sapiens, PBMC) was 3750 nM; on NLRP3 inflammasome [5], 140 nM; at NLRP3 inflammasome [2] (setting [8]), 94 nM; with TNFα [3] (PBMC), above 10000 nM.
As to `NS(=O)(=NC(=O)Nc1c2c(cc3c1CCC3)CCC2)c1cnn2c1OCCC2` (single isomer, unassigned) [Example 14], the IC50 in the test with PBMCs (setting [6]) is 1 nM; on NLRP3 inflammasome [5] it was 1200 nM; at NLRP3 inflammasome [2] (setting [8]) it was 1910 nM; with TNFα [3] (read-out: PBMC TNFα IC50), above 10000 nM.
Regarding `CN(C)C1COc2c(S(N)(=O)=NC(=O)Nc3c4c(cc5c3CCC5)CCC4)cnn2C1` (single isomer, unassigned) [Example 33], the IC50 was 2 nM in the test with PBMCs (Homo sapiens, PBMC); 1600 nM on NLRP3 inflammasome [5]; 890 nM on NLRP3 inflammasome [2] (setting [8]); above 10000 nM in the test with TNFα [3] (PBMC).

In general, IC50 refers to the concentration that inhibits the measured activity by half.
